A short description of the experiment: Anti-oxidant action, linoleic acid peroxide number by rhodan iron method. Conditions: 3 mg α-tocopherol, 50° C. The protocol: The respective fractions were measured for anti-oxidant activity in the following manner.
This solution was sealed in a test tube equipped with a screw and left in a thermostatic chamber at 50° C., and the peroxide number of the linoleic acid was measured every 48 hours by the rhodan iron method. […] The number of days elapsed until the absorbance at 500 nm reached 0.35 was assumed to be induction period (days).

Turning to `Cc1c(C)c2c(c(C)c1O)CCC(C)(CCCC(C)CCCC(C)CCCC(C)C)O2` (stereo not drawn) [α-tocopherol], the “Induction period (days until absorbance at 500 nm reached 0.35)” value is recorded as 8 days.
